Experiment [1] concerns the target TurtOBP1. Nature of the experiment: competitive fluorescence binding assay, displacement of 1-NPN. Further details: species or system Tetranychus urticae.
Experiment [2] deals with TurtOBP4. Described as above. Further details: species or system Tetranychus urticae.
In experiment [3] the target is TurtOBP1. In words: fluorescent probe titration (blue shift) with purified recombinant protein. The class given is binding, Tetranychus urticae.
In experiment [4] the target is TurtOBP4. The experiment is described as above. It counts as binding, Tetranychus urticae.

Results on two molecules are retold here after PMC8269058, “The Odorant-Binding Proteins of the Spider Mite Tetranychus urticae” (International Journal of Molecular Sciences, 2021).

Take `COc1cc(/C=C/C=O)ccc1O` [coniferyl aldehyde]: the figures for the Kd at TurtOBP1 [1] and on TurtOBP4 [2] were 9.8 µM and 6.4 µM, respectively.
In the case of `c1ccc(Nc2cccc3ccccc23)cc1` [1-NPN], the Kd on TurtOBP1 [3] came to 9.7 µM; at TurtOBP4 [4], 3.5 µM.
